Test results reported in BindingDB's records for doi:10.1021/jm020911e (Universit&#224, 2002).

Target: Adenosine receptor A3 (Bos taurus)
Assay: Displacement of [125I]AB-MECA from Adenosine A3 receptor in bovine cortical membranes in the presence of 20 nM DPCPX.

| Ki | Compound |
| --- | --- |
| > 10000 nM | CCC(=O)CNc1nc(-c2ccccc2)nc2nc(C)cn12 [1-(7-Methyl-2-phenyl-imidazo[1,2-a][1,3,5]triazin-4-ylamino)-butan-2-one] |
| > 10000 nM | CC(=O)CNc1nc(-c2ccccc2)nc2nc(C)cn12 [1-(7-Methyl-2-phenyl-imidazo[1,2-a][1,3,5]triazin-4-ylamino)-propan-2-one] |
| 1240 nM | O=C(Nc1nc(-c2ccccc2)nc2nc(-c3ccccc3)cn12)C1CCCC1 [Cyclopentanecarboxylic acid (2,7-diphenyl-imidazo[1,2-a][1,3,5]triazin-4-yl)-amide] |
| 17.4 nM | CC(C)c1cn2c(NC(=O)C3CCCC3)nc(-c3ccccc3)nc2n1 [Cyclopentanecarboxylic acid (7-isopropyl-2-phenyl-imidazo[1,2-a][1,3,5]triazin-4-yl)-amide] |
| 2250 nM | Cc1cn2c(NC3CCCC3)nc(-c3ccccc3)nc2n1 [Cyclopentyl-(7-methyl-2-phenyl-imidazo[1,2-a][1,3,5]triazin-4-yl)-amine] |
| 40 nM | CC(=O)Nc1nc(-c2ccccc2)nc2nc(-c3ccccc3)cn12 [N-(2,7-Diphenyl-imidazo[1,2-a][1,3,5]triazin-4-yl)-acetamide] |
| 231 nM | CC(=O)Nc1nc(-c2ccccc2)nc2nc(C)cn12 [N-(7-Methyl-2-phenyl-imidazo[1,2-a][1,3,5]triazin-4-yl)-acetamide] |
